Source: the supplement of paper PMC10307832

How the values were obtained:
Assay in all cases: relative viability (nuclei count vs DMSO), 5 days (fraction); higher = more cells survive
[1] = compound: CCOC(=O)CCNc1cc(N2CCc3ccccc3CC2)nc(-c2ccccn2)n1 [GSK-J4] + NC(=O)Nc1cc(-c2cccc(F)c2)sc1C(=O)N[C@H]1CCCNC1 [AZD7762] (partner 0.2 µM)
How it was run: (§1)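 A single step with final 0.05% Triton X-100, 1% formaldehyde and 1 ug/ml Hoechst fixed the cells and stained nuclei 5 days after treatment. Lung cancer cell lines in 1536-well plates had been treated by pin tool the day after seeding with one drug alone or a fixed anchor-drug dose plus five library-drug doses (not always all listed) in √10 steps, and nuclei were counted on 4× images. Relative viability is the ratio of nuclei in treated wells to nuclei in vehicle wells, taken as the median of duplicate plates.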

[2] = compound: CCOC(=O)CCNc1cc(N2CCc3ccccc3CC2)nc(-c2ccccn2)n1 [GSK-J4] + O=C(c1cc(Cc2n[nH]c(=O)c3ccccc23)ccc1F)N1CCN(C(=O)C2CC2)CC1 [Olaparib] (partner 8 µM)
How it was run: as §1

[3] = compound: CN1CCC(CC1)OC2=CC(=C(C=C2)NC3=NC=C4C(=N3)N(C(=O)N4C)C5CCCC5)OC [AZ3146] + C[C@@H](Oc1cc(-c2cnn(C3CCNCC3)c2)cnc1N)c1c(Cl)ccc(F)c1Cl [Crizotinib] (partner 1 µM)
How it was run: as §1

[4] = compound: CN1CCC(CC1)OC2=CC(=C(C=C2)NC3=NC=C4C(=N3)N(C(=O)N4C)C5CCCC5)OC [AZ3146] + COc1cc2c(Oc3ccc(NC(=O)C4(C(=O)Nc5ccc(F)cc5)CC4)cc3F)ccnc2cc1OCCCN1CCOCC1 [Foretinib] (partner 0.25 µM)
How it was run: as §1

Cell Line	relative viability ([1]; first compound 0.5 µM)	relative viability ([1]; first compound 1.581 µM)	relative viability ([1]; first compound 5 µM)	relative viability ([1]; first compound 15.81 µM)	relative viability ([1]; first compound 50 µM)	relative viability ([2]; first compound 0.5 µM)	relative viability ([2]; first compound 1.581 µM)	relative viability ([2]; first compound 5 µM)	relative viability ([2]; first compound 15.81 µM)	relative viability ([2]; first compound 50 µM)	relative viability ([3]; first compound 0.08 µM)	relative viability ([3]; first compound 0.253 µM)	relative viability ([3]; first compound 0.8 µM)	relative viability ([3]; first compound 2.53 µM)	relative viability ([3]; first compound 8 µM)	relative viability ([4]; first compound 0.08 µM)	relative viability ([4]; first compound 0.253 µM)	relative viability ([4]; first compound 0.8 µM)	relative viability ([4]; first compound 2.53 µM)	relative viability ([4]; first compound 8 µM)
HCC-827	0.203	0.565	0.252	0.197	0.21	0.622	0.65	0.767	0.589	0.36	0.943	0.859	1.04	0.913	0.911	1.08	1	1.03	1.03	1.09
HOP-62	0.555	0.573	0.45	0.592	0.451	0.394	0.333	0.426	0.491	0.28	0.946	0.955	0.917	1.09	0.601	1.06	1.16	1.01	1.11	1.08
LC-2-ad	0.845	0.756	0.634	0.785	0.81	0.69	0.643	0.672	0.701	0.55	0.365	0.511	0.481	0.494	0.321	0.735	0.905	1.06	0.935	0.878
LCLC-97TM1	0.197	0.23	0.384	0.209	0.337	0.272	0.373	0.364	0.293	0.196	–	–	0.485	0.352	0.304	0.936	0.96	0.879	0.942	0.806
LCLC-103H	0.811	0.76	0.525	0.69	0.65	0.8	0.685	0.776	0.654	0.646	0.987	1.08	0.984	1.08	1.11	0.749	0.81	0.749	0.966	0.657
LK-2	0.53	0.29	0.663	0.168	0.19	0.675	0.628	0.98	0.592	0.364	0.229	–	–	0.228	0.219	0.934	1.21	1.7	1.46	1.3
LOU-NH91	0.773	0.734	0.561	0.703	0.74	0.932	0.859	0.691	0.872	0.802	0.749	0.699	0.746	0.71	0.75	0.967	0.902	1.01	0.931	0.948
LU99A	0.277	0.249	–	0.244	0.126	0.248	0.265	–	0.207	0.205	0.502	0.584	0.555	0.555	0.452	0.699	0.87	0.782	0.849	0.869
LXF-289	1.09	0.836	0.742	1.07	0.987	1.03	1.01	1.14	0.991	0.891	0.848	0.886	0.795	0.781	0.444	0.905	0.989	0.952	0.978	0.914
NCI-H23	0.206	0.388	0.254	0.239	0.265	0.25	0.299	0.292	0.344	0.285	0.398	0.515	0.516	0.425	0.305	1.02	1.08	1.19	1.01	0.612
NCI-H322M	0.618	0.506	0.555	0.636	0.536	0.829	0.729	0.935	0.782	0.658	0.683	0.876	0.9	0.763	0.6	0.893	0.943	0.837	0.738	0.642
NCI-H358	0.598	0.576	0.692	0.606	0.44	0.574	–	0.646	0.521	0.552	0.587	0.616	0.425	0.398	0.177	0.608	0.637	0.554	0.504	0.212
NCI-H441	1.12	1	1.05	1.01	0.967	0.605	0.487	0.406	0.515	0.422	0.646	0.658	0.774	0.773	0.658	0.92	0.949	1.06	1	1.07
NCI-H460	0.645	–	–	0.65	0.555	0.384	–	–	0.433	0.343	0.729	0.844	0.664	0.11	0.0243	1.01	1.06	0.92	0.874	0.312
NCI-H596	1.18	1.12	1.01	0.926	1.12	0.668	0.726	0.734	0.738	0.586	1.02	0.947	1.02	1.02	1.01	0.793	0.714	0.999	0.691	0.881
NCI-H647	0.596	0.431	0.271	0.386	0.44	0.456	0.471	0.545	0.5	0.374	0.983	1.12	0.978	0.763	0.201	1.01	1.21	0.857	1.16	1.21
NCI-H650	0.938	1.04	–	0.782	0.696	0.356	0.371	–	0.272	0.296	0.571	0.721	0.827	0.781	0.542	0.812	0.996	0.961	1.03	1.18
NCI-H727	0.425	0.54	0.728	0.585	0.341	0.597	0.596	0.581	0.718	0.472	0.813	0.796	0.8	0.586	0.365	0.952	0.967	0.975	0.981	0.86
NCI-H838	0.971	0.681	0.76	0.874	0.789	0.696	0.653	0.514	0.568	0.411	0.797	0.798	0.656	0.613	0.281	1.06	1.09	0.954	1.03	0.788
NCI-H1355	0.731	0.693	0.516	0.532	0.584	0.732	0.672	0.762	0.677	0.503	1.07	1.04	1.1	1.04	1.08	0.974	0.968	0.936	1.04	1.05
NCI-H1437	1.1	0.898	1.02	1.07	0.595	0.587	0.596	0.601	0.609	0.301	0.875	0.906	0.853	1.02	0.863	1.24	1.31	1.26	1.35	1.26
NCI-H1651	0.4	0.468	0.466	0.406	0.38	0.178	0.158	0.184	0.182	0.18	0.671	0.811	0.912	0.844	0.871	0.729	0.726	0.809	0.849	0.836
NCI-H1666	0.889	0.807	0.688	0.768	0.573	0.684	0.676	0.786	0.746	0.699	1.08	1.01	1.08	0.934	0.778	0.964	0.994	1.02	1.05	0.839
NCI-H1703	0.117	–	0.113	0.119	0.119	0.385	0.576	0.372	0.362	0.422	0.447	0.59	0.384	0.365	0.241	0.285	0.351	0.329	0.343	0.272
NCI-H1734	0.513	0.767	0.333	0.513	0.423	0.652	0.549	0.551	0.582	0.333	0.678	0.752	0.655	0.697	0.598	0.811	0.859	0.885	0.853	0.705
NCI-H1755	0.42	0.622	0.294	0.4	0.387	0.853	0.754	0.841	0.859	0.687	0.868	0.888	0.855	0.928	0.816	0.917	0.935	0.859	0.915	0.97
NCI-H1915	0.614	0.728	–	0.592	0.722	0.279	0.229	–	0.224	0.257	0.878	0.905	0.852	0.896	0.82	0.92	1.12	1.1	1.22	1.16
